Test results reported in US20240409594A1, “PHOTOA[…] CHANNEL MODULATOR” (INSTITUT NATIONAL DE LA SANTÉ ET DE LA RECHERCHE MÉDICALE, priority 2021, published 2024).

Legend:
[1] = biological target: T1, hNaV1.6 (Homo sapiens, UniProt Q9UQD0); assay: Automated patch-clamp and photoactivation, hNaV1.6 current in HEK293 cells; type: cell-based
T1 construct: expressed in transfected cells

[2] = biological target: T2, hNaV1.2 (Homo sapiens, UniProt Q99250); assay: Automated patch-clamp and photoactivation, hNaV1.2 current in HEK293 cells; type: cell-based; details: 1 nM, 365 nm, 45 mW/cm^2
T2 construct: expressed in transfected cells
T2 sequence (Q99250 whole entry): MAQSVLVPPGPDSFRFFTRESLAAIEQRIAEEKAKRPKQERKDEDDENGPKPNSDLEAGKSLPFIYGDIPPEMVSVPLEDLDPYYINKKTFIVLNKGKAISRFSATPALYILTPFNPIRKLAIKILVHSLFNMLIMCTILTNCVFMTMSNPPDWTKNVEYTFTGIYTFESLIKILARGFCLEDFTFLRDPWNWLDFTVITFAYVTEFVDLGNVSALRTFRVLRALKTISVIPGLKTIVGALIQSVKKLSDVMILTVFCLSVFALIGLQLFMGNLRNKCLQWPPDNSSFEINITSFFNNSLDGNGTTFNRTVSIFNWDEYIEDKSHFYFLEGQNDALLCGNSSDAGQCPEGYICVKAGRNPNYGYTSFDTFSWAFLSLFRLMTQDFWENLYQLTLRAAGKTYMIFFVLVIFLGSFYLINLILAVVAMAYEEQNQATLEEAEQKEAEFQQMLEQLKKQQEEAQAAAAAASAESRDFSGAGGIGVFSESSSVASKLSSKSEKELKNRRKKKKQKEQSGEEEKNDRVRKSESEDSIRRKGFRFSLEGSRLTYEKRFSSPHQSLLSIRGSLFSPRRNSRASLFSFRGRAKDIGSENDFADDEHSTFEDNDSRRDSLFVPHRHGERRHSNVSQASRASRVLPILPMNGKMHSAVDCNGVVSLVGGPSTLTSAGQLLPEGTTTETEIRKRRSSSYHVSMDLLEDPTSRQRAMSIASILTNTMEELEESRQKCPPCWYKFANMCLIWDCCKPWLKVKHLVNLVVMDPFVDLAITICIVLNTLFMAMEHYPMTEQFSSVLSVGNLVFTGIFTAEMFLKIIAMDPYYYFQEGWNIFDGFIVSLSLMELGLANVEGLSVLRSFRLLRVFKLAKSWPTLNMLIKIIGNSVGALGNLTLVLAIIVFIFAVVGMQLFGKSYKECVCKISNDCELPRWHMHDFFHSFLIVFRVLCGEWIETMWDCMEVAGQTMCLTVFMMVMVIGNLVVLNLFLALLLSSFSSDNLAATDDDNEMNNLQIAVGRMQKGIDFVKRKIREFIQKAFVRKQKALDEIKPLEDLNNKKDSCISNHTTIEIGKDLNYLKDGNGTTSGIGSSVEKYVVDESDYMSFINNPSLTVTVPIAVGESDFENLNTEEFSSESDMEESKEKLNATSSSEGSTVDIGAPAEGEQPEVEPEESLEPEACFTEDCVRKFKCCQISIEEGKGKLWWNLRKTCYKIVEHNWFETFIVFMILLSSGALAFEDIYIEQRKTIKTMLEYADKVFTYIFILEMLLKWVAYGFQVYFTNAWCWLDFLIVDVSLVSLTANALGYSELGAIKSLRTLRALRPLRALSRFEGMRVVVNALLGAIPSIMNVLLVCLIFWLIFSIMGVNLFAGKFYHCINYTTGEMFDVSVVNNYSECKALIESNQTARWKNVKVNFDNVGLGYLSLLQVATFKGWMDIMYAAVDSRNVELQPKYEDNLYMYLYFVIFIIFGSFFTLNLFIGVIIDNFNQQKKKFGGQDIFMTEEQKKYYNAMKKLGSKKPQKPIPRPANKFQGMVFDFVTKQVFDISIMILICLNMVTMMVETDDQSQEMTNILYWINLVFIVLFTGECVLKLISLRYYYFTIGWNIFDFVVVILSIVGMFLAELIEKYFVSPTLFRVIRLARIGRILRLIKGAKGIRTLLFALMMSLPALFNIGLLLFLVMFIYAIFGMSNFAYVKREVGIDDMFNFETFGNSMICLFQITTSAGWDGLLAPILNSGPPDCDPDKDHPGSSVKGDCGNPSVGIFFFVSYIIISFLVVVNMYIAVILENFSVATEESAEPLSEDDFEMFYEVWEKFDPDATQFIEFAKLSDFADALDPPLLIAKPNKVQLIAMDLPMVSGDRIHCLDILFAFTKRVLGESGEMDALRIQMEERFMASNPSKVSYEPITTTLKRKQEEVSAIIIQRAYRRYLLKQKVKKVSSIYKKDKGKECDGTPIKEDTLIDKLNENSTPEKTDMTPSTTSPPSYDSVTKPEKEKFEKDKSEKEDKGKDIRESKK

[3] = system: zebrafish larvae; assay: Zebrafish larvae paralysis model; type: in vivo; details: injected, then illumination
[4] = biological target: hERG (Homo sapiens, UniProt Q12809); assay: Automated patch-clamp with photocontrol, hERG current in CHO cells; details: 100 nM; 365 nm, 45 mW/cm^2
Sequence of hERG (Q12809 whole entry): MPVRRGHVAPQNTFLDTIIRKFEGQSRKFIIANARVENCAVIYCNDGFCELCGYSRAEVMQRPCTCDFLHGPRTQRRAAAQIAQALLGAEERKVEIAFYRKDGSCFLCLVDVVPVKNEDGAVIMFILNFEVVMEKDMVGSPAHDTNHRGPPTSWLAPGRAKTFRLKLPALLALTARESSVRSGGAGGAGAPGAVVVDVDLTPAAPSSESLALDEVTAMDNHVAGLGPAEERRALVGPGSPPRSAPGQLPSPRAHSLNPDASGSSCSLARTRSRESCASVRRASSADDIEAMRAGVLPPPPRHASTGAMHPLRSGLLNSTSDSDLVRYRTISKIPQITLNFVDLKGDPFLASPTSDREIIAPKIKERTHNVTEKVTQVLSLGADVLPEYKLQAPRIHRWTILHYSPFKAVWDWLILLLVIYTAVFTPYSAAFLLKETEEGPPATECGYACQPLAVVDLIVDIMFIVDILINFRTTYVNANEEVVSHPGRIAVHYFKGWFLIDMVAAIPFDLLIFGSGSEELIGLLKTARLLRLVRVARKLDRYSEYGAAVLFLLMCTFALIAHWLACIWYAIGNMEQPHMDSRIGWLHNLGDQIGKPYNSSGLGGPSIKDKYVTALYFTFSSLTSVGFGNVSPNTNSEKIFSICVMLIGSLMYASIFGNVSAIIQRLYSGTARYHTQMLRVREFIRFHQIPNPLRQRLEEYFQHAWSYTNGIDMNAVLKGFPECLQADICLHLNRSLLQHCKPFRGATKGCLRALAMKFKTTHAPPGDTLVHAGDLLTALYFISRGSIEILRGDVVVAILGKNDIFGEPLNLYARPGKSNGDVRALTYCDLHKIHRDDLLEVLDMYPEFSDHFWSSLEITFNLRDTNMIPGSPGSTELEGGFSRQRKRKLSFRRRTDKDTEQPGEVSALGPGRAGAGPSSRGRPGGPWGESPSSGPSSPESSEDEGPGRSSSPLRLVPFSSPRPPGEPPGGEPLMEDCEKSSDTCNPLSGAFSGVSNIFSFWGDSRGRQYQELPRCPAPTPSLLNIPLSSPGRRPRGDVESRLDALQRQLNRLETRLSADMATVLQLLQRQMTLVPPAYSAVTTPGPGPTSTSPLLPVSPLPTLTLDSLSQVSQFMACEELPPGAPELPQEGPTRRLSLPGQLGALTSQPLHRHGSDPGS

[5] = biological target: human NaV1.1 channel (human) (UniProt P35498); assay: cell-based or functional assay
[6] = biological target: human NaV1.2 channel (human) (UniProt Q99250); assay: cell-based or functional assay
[7] = biological target: human NaV1.6 channel (human) (UniProt Q9UQD0); assay: cell-based or functional assay
[8] = biological target: shaker (Drosophila melanogaster, UniProt P08510); details: cited from earlier work
[9] = biological target: Kv1.2/KCNA2 (Homo sapiens, UniProt P16389); details: cited from earlier work
[10] = biological target: Kv1.3/KCNA3 (Homo sapiens, UniProt P22001); details: cited from earlier work
[11] = biological target: Kv1.5/KCNA5 (Homo sapiens, UniProt P22460); details: cited from earlier work
[12] = biological target: Kv1.6/KCNA6 (Homo sapiens, UniProt P17658); details: cited from earlier work
[13] = biological target: KCa1.1/KCNMA1 (Homo sapiens, UniProt Q12791); details: cited from earlier work
[14] = system: nicotinic acetylcholine receptors (nAChR); details: cited from earlier work
[15] = biological target: T3, KV1.2 (Homo sapiens, UniProt P16389); assay: Automated patch-clamp with photocontrol, KV1.2 current in CHO cells; type: cell-based; details: 100 nM; 365 nm, 45 mW/cm^2
T3 construct: expressed in transfected cells; host or cells: CHO (transient)

T1 sequence (Q9UQD0 whole entry): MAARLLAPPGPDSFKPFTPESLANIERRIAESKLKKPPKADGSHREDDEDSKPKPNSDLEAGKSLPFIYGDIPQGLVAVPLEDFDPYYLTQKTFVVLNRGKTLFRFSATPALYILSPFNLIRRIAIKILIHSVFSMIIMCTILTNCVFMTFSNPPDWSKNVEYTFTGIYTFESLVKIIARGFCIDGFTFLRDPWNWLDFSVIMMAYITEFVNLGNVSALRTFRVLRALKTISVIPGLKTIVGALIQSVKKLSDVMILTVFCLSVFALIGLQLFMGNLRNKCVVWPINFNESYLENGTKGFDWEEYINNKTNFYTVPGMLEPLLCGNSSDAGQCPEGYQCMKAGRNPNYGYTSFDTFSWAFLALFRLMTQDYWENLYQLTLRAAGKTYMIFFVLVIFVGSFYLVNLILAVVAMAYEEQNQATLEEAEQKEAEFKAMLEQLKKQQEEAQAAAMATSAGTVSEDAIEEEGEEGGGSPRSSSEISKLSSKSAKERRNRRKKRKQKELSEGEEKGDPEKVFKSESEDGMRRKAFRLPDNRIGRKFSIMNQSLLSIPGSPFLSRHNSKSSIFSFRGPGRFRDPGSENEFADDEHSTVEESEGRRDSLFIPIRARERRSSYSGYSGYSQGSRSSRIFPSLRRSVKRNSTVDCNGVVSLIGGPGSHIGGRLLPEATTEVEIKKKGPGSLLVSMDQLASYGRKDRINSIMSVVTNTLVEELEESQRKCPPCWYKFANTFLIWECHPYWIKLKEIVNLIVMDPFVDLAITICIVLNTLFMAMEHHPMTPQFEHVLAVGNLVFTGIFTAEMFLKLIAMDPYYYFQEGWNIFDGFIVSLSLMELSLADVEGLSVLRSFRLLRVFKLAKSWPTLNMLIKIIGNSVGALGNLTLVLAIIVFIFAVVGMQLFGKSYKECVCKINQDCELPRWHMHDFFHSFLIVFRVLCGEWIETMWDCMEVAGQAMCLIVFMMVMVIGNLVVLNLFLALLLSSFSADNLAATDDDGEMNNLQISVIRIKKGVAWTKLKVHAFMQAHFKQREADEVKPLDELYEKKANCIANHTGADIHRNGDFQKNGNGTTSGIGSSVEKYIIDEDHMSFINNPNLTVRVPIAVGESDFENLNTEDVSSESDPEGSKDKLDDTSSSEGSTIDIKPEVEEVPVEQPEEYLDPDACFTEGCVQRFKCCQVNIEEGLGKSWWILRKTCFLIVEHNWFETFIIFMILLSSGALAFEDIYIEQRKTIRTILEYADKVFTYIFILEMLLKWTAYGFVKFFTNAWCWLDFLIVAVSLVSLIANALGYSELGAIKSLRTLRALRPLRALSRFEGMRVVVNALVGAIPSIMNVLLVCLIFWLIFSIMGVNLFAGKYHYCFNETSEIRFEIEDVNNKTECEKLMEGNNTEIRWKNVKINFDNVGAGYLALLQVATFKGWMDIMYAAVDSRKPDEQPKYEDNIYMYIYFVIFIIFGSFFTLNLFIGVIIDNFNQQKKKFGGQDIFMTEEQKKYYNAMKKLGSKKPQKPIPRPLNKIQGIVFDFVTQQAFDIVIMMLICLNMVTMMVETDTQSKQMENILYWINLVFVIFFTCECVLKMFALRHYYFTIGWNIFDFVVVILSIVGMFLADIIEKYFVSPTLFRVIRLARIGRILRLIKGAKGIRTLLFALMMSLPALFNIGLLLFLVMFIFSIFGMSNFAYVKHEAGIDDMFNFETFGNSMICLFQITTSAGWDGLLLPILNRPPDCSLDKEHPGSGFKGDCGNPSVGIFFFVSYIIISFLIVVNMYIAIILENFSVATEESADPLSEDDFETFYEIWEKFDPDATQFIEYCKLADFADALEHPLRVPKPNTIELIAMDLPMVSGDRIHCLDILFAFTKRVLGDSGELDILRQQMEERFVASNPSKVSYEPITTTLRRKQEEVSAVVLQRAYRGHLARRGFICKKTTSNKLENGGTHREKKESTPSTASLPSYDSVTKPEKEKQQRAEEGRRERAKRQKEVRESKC

Compound: CC[C@H](C)[C@@H]1NC(=O)CNC(=O)[C@H](CC(C)C)NC(=O)[C@@H](NC(=O)CN)CSSC[C@@H]2NC(=O)[C@@H]3CSSC[C@@H](C(=O)N[C@@H](CCCCN)C(=O)N[C@@H](Cc4ccc(O)cc4)C(=O)N[C@@H](CCC(N)=O)C(=O)N[C@H](C(=O)N[C@@H](CCCCN)C(N)=O)[C@@H](C)CC)NC(=O)[C@H](Cc4c[nH]c5ccccc45)NC(=O)[C@H](CCCNC(=N)N)NC(=O)[C@H]([C@@H](C)O)NC(=O)[C@H](CCCCN)NC(=O)[C@H](CCCNC(=N)N)NC(=O)[C@H](CO)NC(=O)[C@H](CSSC[C@H](NC(=O)[C@H](C)NC(=O)[C@H](CCCCN)NC(=O)[C@H](Cc4ccccc4)NC1=O)C(=O)N[C@@H](CC(N)=O)C(=O)N1CCC[C@H]1C(=O)N[C@@H](CO)C(=O)N[C@@H](CC(N)=O)C(=O)N[C@@H](CC(=O)O)C(=O)N[C@@H](CCC(N)=O)C(=O)N3)NC(=O)[C@H](C(C)C)NC(=O)[C@H](CC(C)C)NC(=O)[C@H](CCCCN)NC(=O)[C@H](CO)NC(=O)[C@H](CO)NC(=O)[C@H](CCCCN)NC2=O [uncaged HwTxIV-Nvoc]
- IC50 ([1]; FIG. 2a / FIG. 3f series, caged vs non-caged vs uncaged, holding −100 mV, read-out: IC50 NaV1.6 current inhibition): 15.2 nM

Compound: AaHII-R^62K-Nvoc: Nvoc-grafted analogue of AaHII wherein Arg62 was replaced by Lys62
- UV-dependent effect on hNaV1.2 current after uncaging [2]: slowing of inactivation
- UV-dependent effect on hNaV1.2 current after uncaging ([2]; listed as AaHIIR^62K-Nvoc): activation
- Paralysis of zebrafish larvae after illumination [3]: paralysis in all larvaes

Compound: BeKm1-Nvoc: BeKm1 (hERG blocker) caged with a Nvoc protecting group (RPTDIKCSESYQCFPVCKSRFGKTNGRCVNGFCDCF)
- Effect of Nvoc photolysis by-product on NaV1.6 ([1]; by-product from uncaging 100 nM, negative control): inert
- UV-dependent effect on hERG current after uncaging [4]: block

Compound: HwTxIV analog (HwTxIVG^1G^4K^36) (peptide)
- IC50 of hNaV1.1 current inhibition [5]: 3.6 nM
- IC50 of hNaV1.2 current inhibition [6]: 3.23 nM
- IC50 of NaV1.6 current inhibition [7]: 22.4 nM

Compound: QFTNVSCTTSKECWSVCQRLHNTSRGKCMNKKCRCYS [Charybdotoxin]
- Ki [8]: 227 nM
- Inhibition of Kv1.2/KCNA2 [9]: nanomolar range
- Inhibition of Kv1.3/KCNA3 [10]: nanomolar range
- Kd [11]: > 100 nM
- Ki [12]: 22 nM
- IC50 [13]: 5.9 nM
- Interaction with nicotinic acetylcholine receptors [14]: weak interaction

Compound: charybdotoxin-Nvoc
- UV-dependent effect on KV1.2 current after uncaging [15]: block
